Source: ChEMBL document CHEMBL1147777, “Synthesis and antibacterial activity of substituted 1,2,3,4-tetrahydropyrazino [1,2-a] indoles” (2006)
Calls of active or inactive are those of the source. The calls are words filed in the database; no cut-off is given here.

Experiments:
Escherichia coli = test: MIC per disc against Escherichia coli by disc diffusion method; type: functional
[1] = tested on: Streptomyces thermovulgaris; test: MIC per disc against Streptomyces thermonitrificans by disc diffusion method; type: functional
Salmonella typhi = test: MIC per disc against Salmonella typhi by disc diffusion method; type: functional
Staphylococcus aureus = test: MIC per disc in Staphylococcus aureus by disc diffusion method; type: functional
Pseudomonas aeruginosa = test: MIC per disc against Pseudomonas aeruginosa by disc diffusion method; type: functional
RBCs = test: Cytotoxicity against erythrocytes by haemolytic assay at upto 500 ug/ml; type: functional, Erythrocyte
[2] = Salmonella enterica subsp. enterica serovar Typhi

Compound | MIC (Escherichia coli) | MIC [1] | MIC (Salmonella typhi; [2]) | MIC (Staphylococcus aureus) | MIC (Pseudomonas aeruginosa) | Activity (RBCs) [%] | MIC (Salmonella typhi) [µg]
Cc1c2n(c3ccccc13)CCNC2c1cccc(Cl)c1 (stereo not drawn) | inactive | 3.75 µg | inactive | inactive | 15 µg | – | –
Cc1ccc(C2NCCn3c2c(C)c2ccccc23)cc1 (stereo not drawn) | 15 µg | 30 µg | – | 30 µg | 60 µg | 5 | 15
Cc1cn2c(cc3ccccc32)c(C)n1 | 60 µg | 60 µg | – | 60 µg | 60 µg | – | 60
Cc1c2n(c3ccccc13)CCNC2c1ccccn1 (stereo not drawn) | inactive | inactive | inactive | 3.75 µg | inactive | – | –
Cc1c2n(c3ccccc13)CCNC2c1cccs1 (stereo not drawn) | inactive | inactive | – | 60 µg | inactive | – | 30
Cc1cn2c(cc3ccccc32)c(-c2ccccc2)n1 | 60 µg | 60 µg | – | 60 µg | 60 µg | – | 60
Cc1c2n(c3ccccc13)CCN(C)C2 | inactive | 30 µg | – | 30 µg | 30 µg | – | 30
Cc1ccc(CN2CCn3c(c(C)c4ccccc43)C2)cc1 | inactive | 60 µg | – | 15 µg | 60 µg | – | 30
Cc1c2n(c3ccccc13)CCNC2c1ccc([N+](=O)[O-])cc1 (stereo not drawn) | 30 µg | 15 µg | – | 30 µg | 30 µg | 5 | 30
COc1cccc(C2NCCn3c2c(C)c2ccccc23)c1 (stereo not drawn) | 30 µg | 15 µg | – | 60 µg | inactive | – | 30
GENTAMICIN | 1 µg | 1 µg | 1 µg | 1 µg | 0.5 µg | – | –
Cc1c2n(c3ccccc13)CCNC2c1ccc(F)cc1 (stereo not drawn) | 15 µg | 7.5 µg | – | 30 µg | 30 µg | 5 | 30
Cc1c2n(c3ccccc13)CCN(CC#N)C2 | inactive | 30 µg | – | 15 µg | 60 µg | – | 30
Cc1c2n(c3ccccc13)CCN(Cn1nnc3ccccc31)C2 | inactive | inactive | – | 30 µg | inactive | – | 60
Cc1c2n(c3ccccc13)CCNC2c1ccc(Br)cc1 (stereo not drawn) | inactive | 15 µg | – | 15 µg | 60 µg | – | 60
C[C@H]1c2cccc(O)c2C(=O)C2=C(O)[C@]3(O)C(=O)C(C(N)=O)=C(O)[C@@H](N(C)C)[C@@H]3[C@@H](O)[C@@H]21.Cl [DOXYCYCLINE HYDROCHLORIDE] | 2 µg | 1 µg | – | 1 µg | 1 µg | – | 1
Cc1c2n(c3ccccc13)CCNC2c1ccccc1 (stereo not drawn) | inactive | inactive | inactive | inactive | 3.75 µg | – | –
Cc1c2n(c3ccccc13)CCN(Cc1ccccc1)C2 | inactive | 60 µg | – | 15 µg | 60 µg | – | 60
CCOP(=O)(CN1CCn2c(c(C)c3ccccc32)C1)OCC | inactive | 60 µg | inactive | inactive | 60 µg | – | –
